Test results taken from ChEMBL document CHEMBL1201862, “PubChem BioAssay data set” (2004).
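Assay format: 96-well plates, 48-hour exposure. GI50 is the concentration that inhibits growth by half.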 Activity calls are given as the source filed them. Cut-off read from the data, not from the text of the source: active = GI50 up to about 1.1 µM and inactive = higher.

How the values were obtained:
Experiment in all cases: NCI tumour cell line growth inhibition, 48 h
HOP-92 = test system: HOP-92
UACC-62 = test system: UACC-62
SK-MEL-28 = test system: SK-MEL-28
OVCAR-8 = test system: OVCAR-8
M14 = test system: M14
786-0 = test system: 786-0
SF-539 = test system: SF-539
COLO 205 = test system: COLO 205
LOX IMVI = test system: LOX IMVI
CAKI-1 = test system: CAKI-1
SNB-19 = test system: SNB-19
ACHN = test system: ACHN
K562 = test system: K562
UACC-257 = test system: UACC-257
UO-31 = test system: UO-31
RPMI-8226 = test system: RPMI-8226
HCC 2998 = test system: HCC 2998

Measured: GI50

CC(=O)Nc1ccc(C(=O)NN2C(=O)C(Cl)C2c2ccc([N+](=O)[O-])cc2)cc1 (centres undefined)
inactive: HOP-92 > 100 µM | UACC-62 > 100 µM | SK-MEL-28 > 100 µM | OVCAR-8 > 100 µM | M14 > 100 µM | 786-0 > 100 µM | SF-539 > 100 µM | COLO 205 > 100 µM | LOX IMVI > 100 µM | CAKI-1 > 100 µM | SNB-19 > 100 µM | ACHN > 100 µM | K562 > 100 µM | UACC-257 > 100 µM | UO-31 > 100 µM

CCOC(=O)NC(=O)c1cn(CCN2CCNCC2)c(=O)[nH]c1=O
inactive: HOP-92 > 100 µM | UACC-62 > 100 µM | SK-MEL-28 > 100 µM | OVCAR-8 > 100 µM | M14 > 100 µM | 786-0 > 100 µM | SF-539 > 100 µM | COLO 205 > 100 µM | LOX IMVI > 100 µM | RPMI-8226 > 100 µM | CAKI-1 > 100 µM | SNB-19 > 100 µM | ACHN > 100 µM | K562 > 100 µM

N=c1oc2c(O)c(O)ccc2cc1C(N)=O
inactive: HCC 2998 > 100 µM | HOP-92 > 100 µM | UACC-62 35.1 µM | SK-MEL-28 85.7 µM | OVCAR-8 24.5 µM | M14 43 µM | 786-0 12 µM | SF-539 > 100 µM | COLO 205 41.6 µM | RPMI-8226 32.1 µM | CAKI-1 > 100 µM | SNB-19 > 100 µM | ACHN > 100 µM | K562 17.7 µM | UACC-257 32.1 µM | UO-31 > 100 µM

NC(CCC(=O)NC(CSC(=O)N(O)c1ccccc1)C(=O)NCC(=O)O)C(=O)O (centres undefined)
inactive: HCC 2998 > 1000 µM | HOP-92 > 1000 µM | UACC-62 > 1000 µM | SK-MEL-28 > 1000 µM | OVCAR-8 > 1000 µM | M14 > 1000 µM | 786-0 > 1000 µM | SF-539 > 1000 µM | COLO 205 > 1000 µM | LOX IMVI > 1000 µM | CAKI-1 > 1000 µM | SNB-19 > 1000 µM | ACHN > 1000 µM | K562 > 1000 µM | UACC-257 > 1000 µM | UO-31 918 µM

Nc1ncnc2c1ncn2C1OC(CSC(F)F)C(O)C1O (centres undefined)
inactive: HCC 2998 > 100 µM | HOP-92 > 100 µM | UACC-62 > 100 µM | SK-MEL-28 > 100 µM | OVCAR-8 > 100 µM | M14 > 100 µM | 786-0 > 100 µM | SF-539 > 100 µM | COLO 205 > 100 µM | LOX IMVI > 100 µM | RPMI-8226 > 100 µM | CAKI-1 > 100 µM | ACHN > 100 µM | K562 > 100 µM | UACC-257 > 100 µM | UO-31 > 100 µM

CC(C)(C)C#COC(=O)c1ccccc1
inactive: HCC 2998 > 100 µM | UACC-62 > 100 µM | OVCAR-8 > 100 µM | M14 > 100 µM | 786-0 > 100 µM | SF-539 > 100 µM | COLO 205 > 100 µM | LOX IMVI > 100 µM | RPMI-8226 > 100 µM | CAKI-1 > 100 µM | SNB-19 > 100 µM | ACHN > 100 µM | K562 > 100 µM | UACC-257 > 100 µM | UO-31 > 100 µM

O=S1(=O)CS(=O)(=O)OCCCCCO1
inactive: HCC 2998 > 100 µM | HOP-92 > 100 µM | UACC-62 > 100 µM | SK-MEL-28 > 100 µM | OVCAR-8 > 100 µM | M14 > 100 µM | 786-0 > 100 µM | COLO 205 > 100 µM | LOX IMVI > 100 µM | RPMI-8226 > 100 µM | CAKI-1 > 100 µM | SNB-19 > 100 µM | ACHN > 100 µM | K562 > 100 µM | UACC-257 > 100 µM | UO-31 > 100 µM

C[C@H]1[C@H](C)CC[C@]2(C(=O)O)CCC3(COC(=O)/C=C/c4ccc(O)cc4)C(=CCC4[C@@]5(C)CC[C@H](O)C(C)(C)C5CC[C@]43C)[C@H]12 (some centres undefined)
inactive: HCC 2998 5.45 µM | UACC-62 9.4 µM | SK-MEL-28 10.8 µM | OVCAR-8 4.51 µM | M14 11.2 µM | 786-0 5.16 µM | SF-539 4.17 µM | COLO 205 3.99 µM | LOX IMVI 5.24 µM | RPMI-8226 5.05 µM | CAKI-1 2.85 µM | SNB-19 5.11 µM | ACHN 2.69 µM | K562 2.86 µM | UACC-257 14.7 µM | UO-31 4.82 µM
